Values quoted from earlier work in patent publication US20050095200A1, “Prokinetic drugs assistance to small intestine imaging” (priority 2003, published 2005).
Where two headings read alike, the source gives them in different places.

Tests used:
[1] = Medline cross-correlation with 12,155 bleeding publications
[2] = for half-life: in vivo
stomach = details: for subjects with barium emptied from the stomach after 60 minutes: 3 minutes after intake of barium; for food emptying half-life from the stomach: oral 15 mg Metoclopramide 30 minutes prior to tagged food
healthy subjects = details: about 10 mg Cisapride by mouth
[3] = healthy subjects, about 30 mg/day Cisapride by mouth (10x3)
[4] = manometric measurement, intravenous injection of about 10 mg Cisapride

SMILES: COc1cc(N)c(Cl)cc1C(=O)NC1CCN(CCCOc2ccc(F)cc2)CC1OC (stereo not drawn) [Cisapride, CIS-4-AMINO-5-CHLORO-N-(1-(4-FLUOROPHENOXY) PROPYL)3 METHOXY-4-PIPERIDINYL)-2 METHOXYBENZAMIDE MONOHYDRATE]
- change in the number of waves or in the wavelength (duodenum and jejunum; [3]): no change
- increase of amplitude in mmHg in the duodenum and jejunum (duodenum and jejunum; [3]): over 18.4%
- contraction amplitude in the jejunum increased by (duodenum and jejunum; [4]): about 43%
- contraction frequency (duodenum and jejunum; [4]): increased
- reports of bleeding from the digestive tract caused by the drug [1]: not a single report of bleeding from the digestive tract caused by Cisapride
- cases with abdominal discomfort (in vivo): about 16%
- cases with abdominal pain (in vivo): about 4%
- intensity of segmentary contraction (small intestine; daily dose of about 10 to 15 mg Cisapride): may be insufficient
- half-life [2]: about 10 hours
- bio-availability ([2]; oral): about 40%
- stomach emptying t1/2 (stomach; about 10 mg Cisapride by mouth): about 78 min
- stomach emptying time, effect (stomach; about 10 mg Cisapride by mouth): not affected
- emptying indigestible radio-opaque markers during the first hour (stomach; diabetics with gastroparesis, 5 mg Cisapride intravenously): lack of efficiency
- subjects with barium emptied from the stomach after 60 minutes (stomach; intravenous 8 mg Cisapride): 85%
- decrease of transit time of solid food (healthy subjects): about 20%

SMILES: CCN(CC)CCNC(=O)c1cc(Cl)c(N)cc1OC [Metoclopramide, AMINO-4 CHLORO-5 N-(DIETHYLAMINO-2 ETHYL) METHOXY-2 BENZAMIDE]
- reports of bleeding from the digestive tract caused by the drug [1]: not a single description of bleeding damage
- safety profile (intravenous about 10 mg and oral about 20 mg): high safety profile
- intensity of segmentary contraction (small intestine; about single 20 mg dose of Metoclopramide): may be insufficient
- half-life [2]: about 5 hours
- absorption when taken orally ([2]; oral): rapid and good
- bio-availability ([2]; oral): about 77%
- graph of plasma concentration at various times after oral administration ([2]; oral dose of 10 mg): linear
- emptying indigestible radio-opaque markers during the first hour (stomach; diabetics with gastroparesis, 10 mg Metoclopramide intravenously): lack of efficiency
- mean half-life of stomach emptying (stomach; diabetics with gastroparesis, semi-solid tagged substance, 30 mg Metoclopramide per day (3x10), down from 110): 1.12 h
- food emptying half-life from the stomach (stomach; healthy subjects): 1.2 h
- subjects with barium emptied from the stomach after 60 minutes (stomach; intravenous 10 mg Metoclopramide): 93.5%
- food emptying half-life from the stomach (stomach; patients with reflux esophagitis): 0.993 h
